Structures can show the parent of a compound that is named as a salt. Where two headings read alike, the source gives them in different places.
Legend:
[1] = Stability and compatibility of netarsudil dimesylate in boric acid-sodium borate buffer solution; format: physicochemical; details: commercially available doses mixed in boric acid-sodium borate buffer solution, pH 4.5 to 5.4
[2] = prescribing information and literature reports of Rhopress®, cited from earlier work

CC(C)NCC(O)COc1ccc(CCOCC2CC2)cc1 (centres unmarked) [betaxolol hydrochloride]
compatibility with netarsudil dimesylate (white precipitate) [1]: incompatible

CC(C)(C)NC[C@H](O)COc1nsnc1N1CCOCC1 [timolol maleate]
compatibility with netarsudil dimesylate (white precipitate) [1]: incompatible

CC(C)(C)NCC(O)COc1cccc2c1CCC(=O)N2 (centres unmarked) [carteolol hydrochloride]
compatibility with netarsudil dimesylate (white precipitate) [1]: incompatible

O=C(O)/C=C\C(=O)O [maleic acid]
compatibility with netarsudil dimesylate (white precipitate) [1]: incompatible

Cl [hydrochloric acid]
compatibility with netarsudil dimesylate (white precipitate) [1]: incompatible

netarsudil dimesylate
stability in boric acid-sodium borate buffer solution ([2]; pH higher than 5.4): unstable and prone to generating precipitate | stability in boric acid-sodium borate buffer solution ([2]; pH lower than 5.4, commercially available dose): good in stability

CC(=O)Oc1c(C)cc(OCC(O)CNC(C)C)c(C)c1C (centres unmarked) [metipranolol hydrochloride]
compatibility with netarsudil dimesylate (white precipitate) [1]: incompatible

Reference: patent publication US20260027105A1, “COMPOUND MEDICINE COMPOSITION FOR TREATING GLAUCOMA AND USE OF SAME” (Shenyang Pharmaceutical University, priority 2022, published 2026)
